# Experimental data reported in PMC6522473, “The Pseudomonas aeruginosa lectin LecB binds to the exopolysaccharide Psl and stabilizes the biofilm matrix” (Nature Communications, 2019).
# Target: T1, LecB (Pseudomonas aeruginosa, UniProt Q9HYN5)
# T1 construct: purified LecB overexpressed in P. aeruginosa (lecB from PAO1, pJNLecB); homotetramer of 114 amino acid monomers
# Experiment: ITC ([…] K, three titrations)
# Format: binding
# T1 sequence (Q9HYN5 entry or part of it): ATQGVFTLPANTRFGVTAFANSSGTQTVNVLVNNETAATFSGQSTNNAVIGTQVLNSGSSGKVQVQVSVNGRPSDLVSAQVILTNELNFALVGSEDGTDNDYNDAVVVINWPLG
row,Structure (SMILES),Kd
1,"OC[C@H]1O[C@H](O[C@@H]2C(O)O[C@H](CO)[C@@H](O)[C@@H]2O)[C@@H](O)[C@@H](O)[C@@H]1O (stereo partly drawn) [α-1,2′ mannobiose]",26.6 ± 2.61 µM
2,"OC[C@H]1O[C@H](O[C@H]2[C@H](O)[C@@H](CO)OC(O)[C@H]2O)[C@@H](O)[C@@H](O)[C@@H]1O (stereo partly drawn) [α-1,3′ mannobiose]",33.6 ± 7.18 µM
